Assay results as given in patent US20250197408A1, “CRYSTALLINE FORMS AND SALTS OF A PI3K INHIBITOR AND METHODS OF MAKING AND METHODS OF USE THEREOF” (Totus Medicines Inc., priority 2022, published 2025).

Key:
[1] = Solubility in 7 aqueous pH buffers and bio-relevant fluids at 37° C. (HPLC of supernatant; residual solids by XRPD); format: physicochemical
Procedure: 20 mg of the free base Form A of Compound I was weighed into a 20 mL glass vial. Amounts of the salts equivalent to 20 mg anhydrous free base were weighed into a glass vial. 10 mL of solubility medium was added. The resulting suspensions/solutions were stirred at 37° C. at 400 rpm and sampled at 2 hours and at 24 hours, respectively. The samples were centrifuged at 37° C. at 14,000 rpm for 5 min. Supernatants were analyzed by HPLC and pH meter for solubility and pH value, respectively. Residual solids (wet cakes) from the 24 hours samples were also characterized by XRPD to determine physical form.
Residual solids after the solubility test were analyzed by XRPD.

[2] = Dynamic vapor sorption (DVS) analysis at 25° C.; format: physicochemical
Procedure: In one embodiment, the crystalline forms are characterized by Dynamic Vapor Sorption (DVS). The DVS profile is typically expressed by a diagram plotting the sample relative humidity (RH) versus the change in mass (%). The DVS profile provides information on hygroscopicity of the crystalline form at different RH conditions.
A DVS (dynamic vapor sorption) analysis at 25° C. was carried out on Form A** of Compound I benzenesulfonate salt as shown in FIG. 3D.

[3] = Variable humidity XRPD (VH-XRPD) experiments at 25° C.; format: physicochemical; conditions: VH-XRPD and DVS isotherms
Procedure: Variable humidity XRPD (VH-XRPD) experiments.
XRPD analysis was carried out in each specific relative humidity at 25° C. Step: 40% RH (initial)-60% RH (4 h)-80% RH (4 h)-40% RH (4 h)-20% RH (4 h)-0% RH (4 h)-40% RH (4 h).

NCI-H23 (Lung) = assay: Cell proliferation assay (CellTiter-Glo, 3 days treatment), NCI-H23; format: cell-based; conditions: read-out: Absolute IC50
Text: (§1) The cell lines tested included as follows: UM-UC-3 (bladder), KYSE-410 (HN/Esophagus), SW1463 (rectum), Calu-1 (Lung), NCI-H358 (Lung), SW837 (Rectum), SW756 (Cervix), NCI-H2122 (Lung), NCI-H1373 (Lung), NCI-H1792 (Lung), NCI-H23 (Lung), MIA PaCa-2 (Pancreas), and HC44.
(§2) Cells were recovered and maintained in appropriate culture media. The cells were harvested respectively during the logarithmic growth period. The cells were then resuspended and counted using a Vi cell counter (The cell viability be measured by trypan blue exclusion assay.). The cells were then diluted and 90 μL cell suspensions were used in 96-well plates according to plate map with final cell density. Two duplicate plates were set up. One is for day 0 reading (TO) and the other was cultured in incubator for reading at the end point. The incubated plates were incubated overnight in humidified incubator at 37° C. with 5% CO2.
(§3) At day 0, 10 μL culture medium to each well for TO reading. 10 μL of culture medium was added to each well for TO reading. Then, 50 μl CellTiter-Glo® Reagent was added to each well. […] Luminescence was then recorded using an EnVision Multi Label Reader. […]
(§4) For the endpoint CTG reading, 50 μL of CellTiter-Glo® Reagent were added to each well. […] Luminescence was then recorded using an EnVision Multi Label Reader. IC50's were determined for each cell line.

SW837 (Rectum) = assay: Cell proliferation assay (CellTiter-Glo, 3 days treatment), SW837; format: cell-based; conditions: read-out: Absolute IC50
Text: as §1, §2, §3, §4

MIA PaCa-2 (Pancreas) = assay: Cell proliferation assay (CellTiter-Glo, 3 days treatment), MIA PaCa-2; format: cell-based; conditions: read-out: Absolute IC50
Text: as §1, §2, §3, §4

UM-UC-3 (bladder) = assay: Cell proliferation assay (CellTiter-Glo, 3 days treatment), UM-UC-3; format: cell-based; conditions: read-out: Absolute IC50
Text: as §1, §2, §3, §4

NCI-H358 (Lung) = assay: Cell proliferation assay (CellTiter-Glo, 3 days treatment), NCI-H358; format: cell-based; conditions: NCI-H358 (Lung), 3 days treatment; read-out: Absolute IC50
Text: as §1, §2
At day 0, 10 μL culture medium to each well for TO reading. Then, 50 μl CellTiter-Glo® Reagent was added to each well. The contents were then mixed for 2 minutes on an orbital shaker to facilitate cell lysis. The plates were then allowed to incubate at room temperature for 10 minutes to stabilize luminescent signal. Luminescence was then recorded using an EnVision Multi Label Reader. The test compound Compound I, and a control cisplatin, where then diluted at various concentrations from a 10 mM stock solution. Compound I was diluted and 10 μL of each 10× compound I from working solutions for a concentration ranging from 10 μM to about 0.005 μM. Cisplatin was diluted to about […] to about 150 nM. The screening plates were then placed back into the incubator for the appropriate treatment time (3 days).
For the endpoint CTG reading, 50 μL of CellTiter-Glo® Reagent were added to each well. The contents were then mixed for 2 minutes on an orbital shaker to facilitate cell lysis. […] Luminescence was then recorded using an EnVision Multi Label Reader. IC50's were determined for each cell line.

NCI-H2122 (Lung) = assay: Cell proliferation assay (CellTiter-Glo, 3 days treatment), NCI-H2122; format: cell-based; conditions: read-out: Absolute IC50
Text: as §1, §2, §3, §4

NCI-H1373 (Lung) = assay: Cell proliferation assay (CellTiter-Glo, 3 days treatment), NCI-H1373; format: cell-based; conditions: read-out: Absolute IC50
Text: as §1, §2, §3, §4

HC44 = assay: Cell proliferation assay (CellTiter-Glo, 3 days treatment), HC44; format: cell-based; conditions: HCC44 (Lung), read-out: Absolute IC50
Text: as §1, §2, §3, §4

SW756 (Cervix) = assay: Cell proliferation assay (CellTiter-Glo, 3 days treatment), SW756; format: cell-based; conditions: read-out: Absolute IC50
Text: as §1, §2, §3, §4

SW1463 (rectum) = assay: Cell proliferation assay (CellTiter-Glo, 3 days treatment), SW1463; format: cell-based; conditions: read-out: Absolute IC50
Text: as §1, §2, §3, §4

KYSE-410 (HN/Esophagus) = assay: Cell proliferation assay (CellTiter-Glo, 3 days treatment), KYSE-410; format: cell-based; conditions: read-out: Absolute IC50
Text: as §1, §2, §3, §4

NCI-H1792 (Lung) = assay: Cell proliferation assay (CellTiter-Glo, 3 days treatment), NCI-H1792; format: cell-based; conditions: read-out: Absolute IC50
Text: as §1, §2, §3, §4

Calu-1 (Lung) = assay: Cell proliferation assay (CellTiter-Glo, 3 days treatment), Calu-1; format: cell-based; conditions: read-out: Absolute IC50
Text: as §1, §2, §3, §4

[4] = ES1, pH 1.2 HCl solution (0.1N), 37° C.
[5] = ES2, pH 4.5 acetate buffer (50 mM), 37° C.
[6] = ES3, pH 6.8 phosphate buffer (50 mM), 37° C.
[7] = ES4, pH 7.4 phosphate buffer (50 mM), 37° C.

SMILES: C=CC(=O)NCC(=O)N1CCN(Cc2cc3c(N4CCOCC4)nc(-c4cnc(NC(=O)OC)cc4C(F)(F)F)nn3c2)CC1.O=P(O)(O)O [Form A* of Compound I phosphate salt, Methyl (5-(6-((4-(acryloylglycyl)piperazin-1-yl)methyl)-4-morpholinopyrrolo[2,1-f][1,2,4]triazin-2-yl)-4-(trifluoromethyl)pyridin-2-yl) carbamate phosphate salt]
- solubility compared among forms ([1]; 37° C., 2 h and 24 h, 7 aqueous pH buffers and bio-relevant fluids): highest solubility
- Solubility for 2 h [1, 4]: 1200 µg/mL
- pH of supernatant, solubility for 2 h (pH) [1, 4]: (1.2)
- Solubility for 24 h [1, 4]: 1000 µg/mL
- pH of supernatant, solubility for 24 h (pH) [1, 4]: (1.0)
- Solubility for 2 h [1, 5]: >2000 µg/mL
- pH of supernatant, solubility for 2 h (pH) [1, 5]: (4.4)
- Solubility for 24 h [1, 5]: >2000 µg/mL
- pH of supernatant, solubility for 24 h (pH) [1, 5]: (4.4)
- Solubility for 2 h [1, 6]: 8.8 µg/mL
- pH of supernatant, solubility for 2 h (pH) [1, 6]: (6.6)
- Solubility for 24 h [1, 6]: 6.4 µg/mL
- pH of supernatant, solubility for 24 h (pH) [1, 6]: (6.5)
- Solubility for 2 h [1, 7]: 6.1 µg/mL
- pH of supernatant, solubility for 2 h (pH) [1, 7]: (7.2)
- Solubility for 24 h [1, 7]: 4.1 µg/mL
- pH of supernatant, solubility for 24 h (pH) [1, 7]: (7.1)
- Solubility for 2 h ([1]; ES5, SGF, pH 2.0, 37° C.): >2000 µg/mL
- pH of supernatant, solubility for 2 h (pH) ([1]; ES5, SGF, pH 2.0, 37° C.): (1.9)
- Solubility for 24 h ([1]; ES5, SGF, pH 2.0, 37° C.): >2000 µg/mL
- pH of supernatant, solubility for 24 h (pH) ([1]; ES5, SGF, pH 2.0, 37° C.): (1.8)
- Solubility for 2 h ([1]; ES6, FaSSIF-v1, pH 6.5, 37° C.): 26.8 µg/mL
- pH of supernatant, solubility for 2 h (pH) ([1]; ES6, FaSSIF-v1, pH 6.5, 37° C.): (6.2)
- Solubility for 24 h ([1]; ES6, FaSSIF-v1, pH 6.5, 37° C.): 21.1 µg/mL
- pH of supernatant, solubility for 24 h (pH) ([1]; ES6, FaSSIF-v1, pH 6.5, 37° C.): (6.1)
- Solubility for 2 h ([1]; ES7, FeSSIF-v1, pH 5.0, 37° C.): 1600 µg/mL
- pH of supernatant, solubility for 2 h (pH) ([1]; ES7, FeSSIF-v1, pH 5.0, 37° C.): (5.0)
- Solubility for 24 h ([1]; ES7, FeSSIF-v1, pH 5.0, 37° C.): 1700 µg/mL
- pH of supernatant, solubility for 24 h (pH) ([1]; ES7, FeSSIF-v1, pH 5.0, 37° C.): (4.9)
- maintenance of supersaturation ([1]; pH 4.5 buffer, 37° C.): can be maintained for a longer time than the crystalline Form B* of Compound I maleate salt
- hygroscopicity / water sorption behavior (DVS) [2]: slightly hygroscopic in <90% RH. Then it becomes hygroscopic
- relative humidity in which it converts to hydrate form (DVS) [2]: > 30 % RH
- relative humidity in which the form dehydrates (DVS) [2]: < 30 % RH
- solid form of the sample after the DVS test [2]: still the Form A* of Compound I phosphate salt
- water uptake (DVS) ([2]; from 40% to 95% RH): 3.3%
- relative humidity at which the form dehydrates and converts to anhydrate Form B of Compound I phosphate salt [3]: < 20 % RH

SMILES: N.N.[Cl][Pt][Cl] [cisplatin, reference compound]
- IC50 (NCI-H23 (Lung)): 3.58 µM
- IC50 (SW837 (Rectum)): 42.5 µM
- IC50 (MIA PaCa-2 (Pancreas)): 7.03 µM
- IC50 (UM-UC-3 (bladder)): 1.86 µM
- IC50 (NCI-H358 (Lung)): 12.5 µM
- IC50 (NCI-H2122 (Lung)): 17.8 µM
- IC50 (NCI-H1373 (Lung)): 8.72 µM
- IC50 (HC44): 7.96 µM
- IC50 (SW756 (Cervix)): 10.3 µM
- IC50 (SW1463 (rectum)): 12.2 µM
- IC50 (KYSE-410 (HN/Esophagus)): 15.8 µM
- IC50 (NCI-H1792 (Lung)): 4.88 µM
- IC50 (Calu-1 (Lung)): 10.2 µM
